One assay relates to T2D mouse model. Kind of assay: serum LPC-fatty acid levels after 4 weeks of administration in T2D mouse model. The assay is classed as in vivo, mice. To be noted: for serum concentration of LPC-arachidonic acid (AA) / serum concentration of LPC-eicosapentaenoic acid (EPA) / serum concentration of α-linolenic acid (aLA): FIG. 5; for change in serum LPC-18:2 / change in serum LPC-DHA: T2D mouse model, 4 weeks of administration; for change in serum LPC-18:2: FIG. 3; for change in serum LPC-DHA: FIG. 4. How it is done: To validate the inventors' hypotheses on the biological activity of the lignan and methyl donor various animal experiments were performed using mice as test subjects. Diabetes (type 1 and type 2) was used as model disease for LPC deficiency. Type 2 (T2D) diabetic mice were 6-week-old BKS.Cg-Dock7m+/+Leprdb/J (db/db), leptin receptor deficient. Hyperglycemia was confirmed (BG>250 mg/dl). Upon confirmation, all animals were subjected to 4-week treatment as indicated below. Treatment groups were as follows: Control, MSM treatment alone, sesame seed oil treatment alone, and MSM+sesame seed oil treatment. For harvest, serum was collected for lipid panel and analyzed using standard clinical protocol and equipment. Tissues (brain, eyes, heart, liver, kidneys) for fatty acid analysis was frozen at −80° C., and liver sections preserved in formalin for histology. MSM was administered as 1% MSM solution in water: 15-20 ml water was given per ˜25 g mouse per day (6-8 g/kg dose for ˜25 g mouse; 3-5 g/kg dose for ˜40 g mouse). Sesamin was provided as 1.58 mg/mL sesamin in sesame seed oil with 0.12-0.15 mg/g sesamin in mouse food (T1D: 4.4 g food per mouse per day; T2D: 7-8 g food per mouse per day; 20-22 mg/kg dose for mouse (both models)). After 4 weeks of administration of the tested compounds in the T2D mouse model, LPC-18:2 and LPC-DHA were determined from plasma and exemplary results are shown in FIG. 3 and FIG. 4, respectively.

For assay [1], the system named is high-fat diet-induced dyslipidemia. To be noted: Nutrients 2016, 8, 276; cited from earlier work.
The subject of assay [2] is mice with high-fat diet-induced diabetes. To be noted: Exp Physiol 100.11 (2015); cited from earlier work.

Each structure is given as a SMILES string.

The values that follow come from patent publication US20220378732A1, “SmartCore Compositions and Methods” (NPI, LLC, priority 2020, published 2022).

Turning to `CS(C)(=O)=O` [MSM, methylsulfonylmethane], in the assay with T2D mouse model, the “serum concentration of LPC-arachidonic acid (AA)” value is reported as “did not result in an increase”, the “serum concentration of LPC-eicosapentaenoic acid (EPA)” value is given as “did not result in an increase”, the “serum concentration of α-linolenic acid (aLA)” value is on record as “did not result in an increase” and the “change in serum LPC-18:2” value was “did not trigger a statistically relevant change”. In the assay on T2D mouse model, the “change in serum LPC-DHA” value is given as “did not trigger a statistically relevant change”.
For the compound `c1cc2c(cc1[C@H]1OC[C@H]3[C@@H]1CO[C@@H]3c1ccc3c(c1)OCO3)OCO2` [sesamin], in the assay with T2D mouse model, the “serum concentration of LPC-arachidonic acid (AA)” value was “did not result in an increase”, the “serum concentration of LPC-eicosapentaenoic acid (EPA)” value was “did not result in an increase”, the “serum concentration of α-linolenic acid (aLA)” value is “did not result in an increase” and the “change in serum LPC-18:2” value is “did not trigger a statistically relevant change”. For the same compound, the “change in serum LPC-DHA” value in the assay on T2D mouse model is on record as “did not trigger a statistically relevant change”. For the same compound, the “effect on high-fat diet-induced dyslipidemia and kidney injury” value in assay [1] was “ameliorating high-fat diet-induced dyslipidemia and kidney injury”. Moreover, the “effect on exercise capacity and skeletal muscle mitochondrial function” value in assay [2] was “prevent decline in exercise capacity and impairment of skeletal muscle mitochondrial function”.
